14 molecules from patent publication US20240238423A9, “TETRAHYDROISOQUINOLINE HETEROBIFUNCTIONAL BCL-XL DEGRADERS” (Treeline Biosciences, Inc., priority 2022, published 2024) can be followed below.

In the assay the target is T1, Human BCL-XL protein (N-terminal HiBiT tagged BCL-XL in HT1080 cells) (Homo sapiens, UniProt Q07817).
T1 construct: expressed in transfected cells; host or cells: HT-1080 (ATCC CCL-121), stably transduced with lentivirus pLV-UBC-N-HiBiT-BCL-XL-PGK-puro and selected with puromycin
In words: HiBiT based degradation assay. The assay is classed as cell-based. As to conditions: HT1080 cells expressing HiBiT-BCL-XL; for Ymin (24 h) / Ymin (6 h): BCL-XL degradation normalized with DMSO control; for DC50: BCL-XL degradation. Put shortly: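 HT1080 cells stably transduced by lentivirus with N-terminally HiBiT-tagged human BCL-XL and kept under 1 μg/mL puromycin selection were seeded at three thousand cells per well in 40 μL RPMI 1640 into 384-well plates pre-spotted with compounds across a concentration range. Luminescence was read on a PHERAstar FSX, normalized to DMSO, and fitted with a four-parameter logistic model.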
A general note: HiBiT is a short tag that completes a luciferase, so light tracks the accessible tagged protein.

Like-named read-outs stand apart in the source and are kept apart here. Bounds are passed on as bounds.

T1 sequence (Q07817 whole entry): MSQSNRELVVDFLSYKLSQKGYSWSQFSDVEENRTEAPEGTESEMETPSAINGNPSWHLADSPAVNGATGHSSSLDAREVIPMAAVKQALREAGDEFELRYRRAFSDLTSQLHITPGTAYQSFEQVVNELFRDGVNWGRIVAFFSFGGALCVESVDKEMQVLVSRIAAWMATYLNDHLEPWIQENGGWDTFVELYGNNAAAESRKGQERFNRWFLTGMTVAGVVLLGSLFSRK

`Cc1c(OCCCC2CCN(CCN3CCN(c4cccc5c(C6CCC(=O)NC6=O)nn(C)c45)CC3)CC2)cccc1-c1ccc(N2CCc3cccc(C(=O)Nc4nc5ccccc5s4)c3C2)nc1C(=O)O` (stereo not shown) [Compound 230, 6-(8-(benzo[d]thiazol-2-ylcarbamoyl)-3,4-dihydroisoquinolin-2(1H)-yl)-3-(3-(3-(1-(2-(4-(3-(2,6-dioxopiperidin-3-yl)-1-methyl-1H-indazol-7-yl)piperazin-1-yl)ethyl)piperidin-4-yl)propoxy)-2-methylphenyl)picolinic acid]: the “Ymin (24 h)” value (24 h) was “A (Ymin < 50%)”. Further, the DC50 (24 h, read-out: EC50 (24 h)) is below 100 nM.
Take `Cc1c(OCC[C@@H]2CCN(CC(=O)Nc3cccc4c(C5CCC(=O)NC5=O)nn(C)c34)C2)cccc1-c1ccc(N2CCc3cccc(C(=O)Nc4nc5ccccc5s4)c3C2)nc1C(=O)O` (stereo partly drawn) [Compound 231a, 6-[8-(1,3-benzothiazol-2-ylcarbamoyl)-3,4-dihydro-1H-isoquinolin-2-yl]-3-[3-[2-[(3S)-1-[2-[[3-(2,6-dioxo-3-piperidyl)-1-methyl-indazol-7-yl]amino]-2-oxo-ethyl]pyrrolidin-3-yl]ethoxy]-2-methyl-phenyl]pyridine-2-carboxylic acid]: the “Ymin (24 h)” value (24 h) is reported as “B (50% ≤ Ymin < 70%)”. Besides, the DC50 (24 h, read-out: EC50 (24 h)) is below 100 nM.
As to `Cc1c(OCC[C@H]2CCN(CC(=O)Nc3cccc4c(C5CCC(=O)NC5=O)nn(C)c34)C2)cccc1-c1ccc(N2CCc3cccc(C(=O)Nc4nc5ccccc5s4)c3C2)nc1C(=O)O` (stereo partly drawn) [Compound 231b, 6-[8-(1,3-benzothiazol-2-ylcarbamoyl)-3,4-dihydro-1H-isoquinolin-2-yl]-3-[3-[2-[(3R)-1-[2-[[3-(2,6-dioxo-3-piperidyl)-1-methyl-indazol-7-yl]amino]-2-oxo-ethyl]pyrrolidin-3-yl]ethoxy]-2-methyl-phenyl]pyridine-2-carboxylic acid], the “Ymin (24 h)” value (24 h) was “B (50% ≤ Ymin < 70%)”. Under “24 h, read-out: EC50 (24 h)”, the DC50 was below 100 nM.
On the same counts, the results for `Cc1c(OCCC2CCN(CCN3CCN(c4ccc5c(C6CCC(=O)NC6=O)nn(C)c5c4)CC3)CC2)cccc1-c1ccc(N2CCc3cccc(C(=O)Nc4nc5ccccc5s4)c3C2)nc1C(=O)O` (stereo not shown) [Compound 232, 6-[8-(1,3-benzothiazol-2-ylcarbamoyl)-3,4-dihydro-1H-isoquinolin-2-yl]-3-[3-[2-[1-[2-[4-[3-(2,6-dioxo-3-piperidyl)-1-methyl-indazol-6-yl]piperazin-1-yl]ethyl]-4-piperidyl]ethoxy]-2-methyl-phenyl]pyridine-2-carboxylic acid] are “A (Ymin < 50%)” and below 100 nM.
With `Cc1c(OCCC2CCN(CCN3CCN(c4cccc5c(C6CCC(=O)NC6=O)nn(C)c45)CC3)CC2)cccc1-c1ccc(N2CCc3cccc(C(=O)Nc4nc5ccccc5s4)c3C2)nc1C(=O)O` (stereo not shown) [Compound 233, 6-[8-(1,3-benzothiazol-2-ylcarbamoyl)-3,4-dihydro-1H-isoquinolin-2-yl]-3-[3-[2-[1-[2-[4-[3-(2,6-dioxo-3-piperidyl)-1-methyl-indazol-7-yl]piperazin-1-yl]ethyl]-4-piperidyl]ethoxy]-2-methyl-phenyl]pyridine-2-carboxylic acid], the “Ymin (24 h)” value (24 h) was “A (Ymin < 50%)”. The DC50 (24 h, read-out: EC50 (24 h)) was below 100 nM.
As to `Cc1c(Oc2ccc(CC(F)(F)CN3CCN(c4ccc5c(C6CCC(=O)NC6=O)nn(C)c5c4)CC3)cc2)cccc1-c1ccc(N2CCc3cccc(C(=O)Nc4nc5ccccc5s4)c3C2)nc1C(=O)O` (stereo not shown) [Compound 234, 6-[8-(1,3-benzothiazol-2-ylcarbamoyl)-3,4-dihydro-1H-isoquinolin-2-yl]-3-[3-[4-[3-[4-[3-(2,6-dioxo-3-piperidyl)-1-methyl-indazol-6-yl]piperazin-1-yl]-2,2-difluoro-propyl]phenoxy]-2-methyl-phenyl]pyridine-2-carboxylic acid], for the setting “6 h”, the “Ymin (6 h)” value was “C (Ymin ≥ 70%)”. Moreover, the “Ymin (24 h)” value (24 h) is given as “B (50% ≤ Ymin < 70%)”. The DC50 is, setting by setting: (6 h, read-out: EC50 (6 h)) 100 to 1000 nM; (24 h, read-out: EC50 (24 h)) below 100 nM.
In the case of `Cc1c(OCCCCN2CCC(CN3CCN(c4ccc5c(C6CCC(=O)NC6=O)nn(C)c5c4)CC3)CC2)cccc1-c1ccc(N2CCc3cccc(C(=O)Nc4nc5ccccc5s4)c3C2)nc1C(=O)O` (stereo not shown) [Compound 235, 6-[8-(1,3-benzothiazol-2-ylcarbamoyl)-3,4-dihydro-1H-isoquinolin-2-yl]-3-[3-[4-[4-[[4-[3-(2,6-dioxo-3-piperidyl)-1-methyl-indazol-6-yl]piperazin-1-yl]methyl]-1-piperidyl]butoxy]-2-methyl-phenyl]pyridine-2-carboxylic acid], the “Ymin (24 h)” value (24 h) is listed as “A (Ymin < 50%)”. The DC50 (24 h, read-out: EC50 (24 h)) is below 100 nM.
Regarding `Cc1cc(OCCCC2CCN(CC(=O)Nc3cccc4c(C5CCC(=O)NC5=O)nn(C)c34)CC2)ccc1-c1ccc(N2CCc3cccc(C(=O)Nc4nc5ccccc5s4)c3C2)nc1C(=O)O` (stereo not shown) [Compound 236, 6-(8-(Benzo[d]thiazol-2-ylcarbamoyl)-3,4-dihydroisoquinolin-2(1H)-yl)-3-(4-(3-(1-(2-((3-(2,6-dioxopiperidin-3-yl)-1-methyl-1H-indazol-7-yl)amino)-2-oxoethyl)piperidin-4-yl)propoxy)-2-methylphenyl)picolinic acid], the “Ymin (6 h)” value (6 h) is on record as “B (50% ≤ Ymin < 70%)”. For the setting “24 h”, the “Ymin (24 h)” value is recorded as “B (50% ≤ Ymin < 70%)”. In addition, the DC50 is, setting by setting: (6 h, read-out: EC50 (6 h)) below 100 nM; (24 h, read-out: EC50 (24 h)) below 100 nM.
Regarding `Cc1c(OCCCCCCCCCN2CCN(c3cccc4c(C5CCC(=O)NC5=O)nn(C)c34)CC2)cccc1-c1ccc(N2CCc3cccc(C(=O)Nc4nc5ccccc5s4)c3C2)nc1C(=O)O` (stereo not shown) [Compound 237, 6-[8-(1,3-benzothiazol-2-ylcarbamoyl)-3,4-dihydro-1H-isoquinolin-2-yl]-3-[3-[9-[4-[3-(2,6-dioxo-3-piperidyl)-1-methyl-indazol-7-yl]piperazin-1-yl]nonoxy]-2-methyl-phenyl]pyridine-2-carboxylic acid], the “Ymin (6 h)” value (6 h) is “A (Ymin < 50%)”. Moreover, under “6 h, read-out: EC50 (6 h)”, the DC50 was below 100 nM.
As to `Cc1c(OCCOC2CCN(CC(=O)Nc3ccc4c(C5CCC(=O)NC5=O)nn(C)c4c3)CC2)cccc1-c1ccc(N2CCc3cccc(C(=O)Nc4nc5ccccc5s4)c3C2)nc1C(=O)O` (stereo not shown) [Compound 238, 6-(8-(benzo[d]thiazol-2-ylcarbamoyl)-3,4-dihydroisoquinolin-2(1H)-yl)-3-(3-(2-((1-(2-((3-(2,6-dioxopiperidin-3-yl)-1-methyl-1H-indazol-6-yl)amino)-2-oxoethyl)piperidin-4-yl)oxy)ethoxy)-2-methylphenyl)picolinic acid], the “Ymin (6 h)” value (6 h) is listed as “B (50% ≤ Ymin < 70%)”. Moreover, where the note is “24 h”, the “Ymin (24 h)” value is listed as “B (50% ≤ Ymin < 70%)”. Also, the DC50 runs as follows: (6 h, read-out: EC50 (6 h)) below 100 nM; (24 h, read-out: EC50 (24 h)) below 100 nM.
In the case of `Cc1c(O[C@H]2CC[C@H](CC(F)(F)C(=O)N3CCN(c4ccc5c(C6CCC(=O)NC6=O)nn(C)c5c4)CC3)CC2)cccc1-c1ccc(N2CCc3cccc(C(=O)Nc4nc5ccccc5s4)c3C2)nc1C(=O)O` (stereo partly shown) [Compound 239a, 6-(8-(benzo[d]thiazol-2-ylcarbamoyl)-3,4-dihydroisoquinolin-2(1H)-yl)-3-(3-(((1r,4r)-4-(3-(4-(3-(2,6-dioxopiperidin-3-yl)-1-methyl-1H-indazol-6-yl)piperazin-1-yl)-2,2-difluoro-3-oxopropyl)cyclohexyl)oxy)-2-methylphenyl)picolinic acid], the “Ymin (24 h)” value (24 h) is given as “B (50% ≤ Ymin < 70%)”. For the same molecule, the DC50 (24 h, read-out: EC50 (24 h)) was below 100 nM.
On to `Cc1c(OCCC[C@@H]2CCN(CC(=O)Nc3cccc4c(C5CCC(=O)NC5=O)nn(C)c34)C2)cccc1-c1ccc(N2CCc3cccc(C(=O)Nc4nc5ccccc5s4)c3C2)nc1C(=O)O` (stereo partly drawn) [Compound 240a, 6-[8-(1,3-benzothiazol-2-ylcarbamoyl)-3,4-dihydro-1H-isoquinolin-2-yl]-3-[3-[3-[(3R)-1-[2-[[3-(2,6-dioxo-3-piperidyl)-1-methyl-indazol-7-yl]amino]-2-oxo-ethyl]pyrrolidin-3-yl]propoxy]-2-methyl-phenyl]pyridine-2-carboxylic acid], for which the “Ymin (24 h)” value (24 h) is reported as “B (50% ≤ Ymin < 70%)”. Also, the DC50 (24 h, read-out: EC50 (24 h)) is below 100 nM.
On the same counts, the results for `Cc1c(OCCC[C@H]2CCN(CC(=O)Nc3cccc4c(C5CCC(=O)NC5=O)nn(C)c34)C2)cccc1-c1ccc(N2CCc3cccc(C(=O)Nc4nc5ccccc5s4)c3C2)nc1C(=O)O` (stereo partly drawn) [Compound 240b, 6-(8-(benzo[d]thiazol-2-ylcarbamoyl)-3,4-dihydroisoquinolin-2(1H)-yl)-3-(3-(3-((3S)-1-(2-((3-(2,6-dioxopiperidin-3-yl)-1-methyl-1H-indazol-7-yl)amino)-2-oxoethyl)pyrrolidin-3-yl)propoxy)-2-methylphenyl)picolinic acid] are “B (50% ≤ Ymin < 70%)” and below 100 nM.
`Cc1c(Oc2ccc(CCN3CCN(c4cccc5c(C6CCC(=O)NC6=O)nn(C)c45)CC3)cc2)cccc1-c1ccc(N2CCc3cccc(C(=O)Nc4nc5ccccc5s4)c3C2)nc1C(=O)O` (stereo not shown) [Compound 241, 6-[8-(1,3-benzothiazol-2-ylcarbamoyl)-3,4-dihydro-1H-isoquinolin-2-yl]-3-[3-[4-[2-[4-[3-(2,6-dioxo-3-piperidyl)-1-methyl-indazol-7-yl]piperazin-1-yl]ethyl]phenoxy]-2-methyl-phenyl]pyridine-2-carboxylic acid]: the “Ymin (24 h)” value (24 h) is “B (50% ≤ Ymin < 70%)”. Also, where the note is “24 h, read-out: EC50 (24 h)”, the DC50 was below 100 nM.
